Holding throughout (assay type): cell-based
One assay relates to VCaP. Description: MTT cell viability, 7 days. The settings on record: Homo sapiens, 168 h. As to the method: (§1) Cells were seeded in 96-well plates and treated with drugs the next day. After 7 days, viability was assessed using MTT assay.
(§2) (C) Western blot analysis of AR and AR-V7 in C4-2B and C4-2B/MDVR cells after 48-hour ITRI-148 treatment. […] DEGs were determined relative to DMSO or pLKO.1 vector control. […] RPL13A was used for normalization. […] AR, AR-V7, and PSA expression in the drug-treated cells were detected across treatment timepoints.

Another assay has as its system CWR22Rv1. In words: MTT cell viability, 7 days. The settings on record: 168 h. As to the method:
as §1, §2

The test system of the next assay is LNCaP. Description: MTT cell viability, 7 days. The settings on record: Homo sapiens, 168 h. As for the experimental part:
as §1, §2

A further assay has as its system LNCaP95. In words: MTT cell viability, 7 days. The settings on record: LNCaP-95, 168 h. As for the experimental part: as §1, §2
The subject of a further assay is AR. Description: AR degradation by immunoblotting in CRPC cells. Particulars: 10 μM. As for the experimental part:
Cell lysis, Western blotting, and AR ubiquitination were performed as described in [17]. Primary antibodies: AR (Millipore 06-680), AR-V7 (RevMAb Biosciences 31-1109-00), PSA (ABclonal A4355), NKX3-1 (Cell Signaling Technology 92998), GAPDH (Cell Signaling Technology 2118) and β-Actin (Sigma-Aldrich A5441).
Fig. 1 ITRI-148 induces degradation of both AR and AR-V7 proteins in CRPC cells. […] (B) Expression of Flag-tagged AR-V7 in 293T cells following ITRI-148 treatment. Cells transiently expressing Flag-AR-V7 were pretreated with 50 μg/mL cycloheximide for 1 hour, then exposed to ITRI-148 at the indicated concentrations for 8 hours. AR-V7 expression was detected using an anti-Flag antibody. (C) Representative immunoblots showing AR protein levels in VCaP and CWR22Rv1 cells after 48 hours of ITRI-148 treatment. An N-terminal AR antibody was used to detect both full-length AR and LBD-truncated variants (AR-V(ΔLBD)) in CWR22Rv1 cells, while AR-V7 was detected using an AR-V7-specific antibody. DC₅₀ values were calculated from normalized band intensities, and Dₘₐₓ represents the maximal degradation achieved at 10 μM ITRI-148. (D) Immunofluorescence staining of AR after 24 or 48 hours of ITRI-148 treatment, detected using an N-terminal AR antibody. […] (F) Western blot analysis of ectopically expressed wild-type (WT) and mutant Myc-tagged AR in DU145 cells following 24 hours of treatment with 10 μM ITRI-148. Quantified AR levels are as indicated. TEXT PRINTED IN THE PICTURE: (C) ITRI-148: DC50 (μM) AR CWR22Rv1: 1.23 ± 1.86; DC50 (μM) AR VCaP: 0.05 ± 0.03; DC50 (μM) AR-V7 CWR22Rv1: 1.20 ± 0.92; DC50 (μM) AR-V7 VCaP: 0.02 ± 0.02; Dmax (%) AR CWR22Rv1: 65.02 ± 19.91; Dmax (%) AR VCaP: 80.49 ± 5.61; Dmax (%) AR-V7 CWR22Rv1: 72.10 ± 3.15; Dmax (%) AR-V7 VCaP: 91.36 ± 2.05
(In general: In western blotting, separated proteins are transferred to a membrane and probed.)

Structures are written as SMILES. Where only a bound is given, the exact number is not on record here.

For `N#Cc1ccc(O[C@H]2CC[C@H](NC(=O)c3ccc(N4CCC(CN5CCN(c6cc7c(cc6F)C(=O)N(C6CCC(=O)NC6=O)C7=O)CC5)CC4)nn3)CC2)cc1Cl` (some centres unmarked) [ARV-110, reference compound], the IC50 (usually the concentration at which inhibition is half-maximal) with VCaP is over 10 µM; with CWR22Rv1, over 10 µM; in the assay with LNCaP, 740 nM; with LNCaP95, over 10 µM.
As to `CN1C(=O)CCC(N2C(=O)c3cccc(NCC(=O)N4CCC(N5CCC(C#Cc6ccc(C7CCN(C8=Nn9c(nnc9C(F)(F)F)CC8)CC7)cc6)CC5)CC4)c3C2=O)C1=O` (centres unmarked) [inactive analog of ITRI-148], the “degradation of the AR proteins (western blot)” value in the assay on AR is reported as “failed to degrade the AR proteins”.

Source of the values: publication PMC12661400, “Oral bioavailable ITRI-148 degrades androgen receptor variants and overcomes antiandrogen resistance in advanced prostate cancer” (Neoplasia (New York, N.Y.), 2025).
